{
  "source": "patent US12077503B2",
  "about": "“Substituted cyclic amides and their use as herbicides” (FMC CORPORATION, priority 2015, dated 2024)",
  "test_in_all_cases": "Test C preemergence",
  "type_in_all_cases": "in vivo",
  "conditions_in_all_cases": "scale 0 to 100, 0 no effect, 100 complete control",
  "key": {"[1]": {"system": "johnsongrass (Sorghum halepense)", "summary_of_the_method": "(§1)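 Preemergence application to seeds in loam/sand soil, or foliar (postemergence) application to plants 2–18 cm tall in peat moss/vermiculite medium; surfactant-containing non-phytotoxic solvent vehicle; greenhouse. Visual injury vs controls at 13–15 d; 0 = no effect, 100 = complete control.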"}, "[2]": {"system": "nutsedge, yellow (yellow nutsedge, Cyperus esculentus)", "summary_of_the_method": "as §1"}, "[3]": {"system": "velvetleaf (Abutilon theophrasti)", "summary_of_the_method": "as §1"}, "[4]": {"system": "blackgrass (Alopecurus myosuroides)", "summary_of_the_method": "as §1"}, "[5]": {"system": "pigweed (Amaranthus retroflexus)", "summary_of_the_method": "as §1"}, "[6]": {"system": "ryegrass, Italian (Italian ryegrass, Lolium multiflorum)", "summary_of_the_method": "as §1"}, "[7]": {"system": "ragweed (common ragweed, Ambrosia elatior)", "summary_of_the_method": "as §1"}, "[8]": {"system": "waterhemp (common waterhemp, Amaranthus rudis)", "summary_of_the_method": "as §1"}, "[9]": {"system": "lambsquarters (Chenopodium album)", "summary_of_the_method": "as §1"}, "[10]": {"system": "morningglory (Ipomoea coccinea)", "summary_of_the_method": "as §1"}, "[11]": {"system": "barnyardgrass (Echinochloa crus-galli)", "summary_of_the_method": "as §1"}, "[12]": {"system": "foxtail, giant (giant foxtail, Setaria faberii)", "summary_of_the_method": "as §1"}, "corn (Zea mays)": {"system": "corn (Zea mays)", "summary_of_the_method": "as §1"}, "[13]": {"system": "wheat (winter wheat, Triticum aestivum)", "summary_of_the_method": "as §1"}, "[14]": {"system": "crabgrass, large (large crabgrass, Digitaria sanguinalis)", "summary_of_the_method": "as §1"}, "[15]": {"system": "oilseed rape (Brassica napus)", "summary_of_the_method": "as §1"}},
  "data": [
    {"smiles": "CN1CC(c2cccc(OC(F)(F)C(F)F)c2)C(C(=O)Nc2ccc(F)cc2F)C1=O", "note": "(stereo not drawn) [Compound 393]", "values": [
      {"measurement": "Plant response rating, Johnsongrass", "setting": "[1]; 31 g ai/ha", "result": 70},
      {"measurement": "Plant response rating, Johnsongrass", "setting": "[1]; 62 g ai/ha", "result": 80},
      {"measurement": "Plant response rating, Johnsongrass", "setting": "[1]; 125 g ai/ha", "result": 85},
      {"measurement": "Plant response rating, Johnsongrass", "setting": "[1]; 250 g ai/ha", "result": 85},
      {"measurement": "Plant response rating, Nutsedge, Yellow", "setting": "[2]; 31 g ai/ha", "result": 0},
      {"measurement": "Plant response rating, Nutsedge, Yellow", "setting": "[2]; 62 g ai/ha", "result": 0},
      {"measurement": "Plant response rating, Nutsedge, Yellow", "setting": "[2]; 125 g ai/ha", "result": 0},
      {"measurement": "Plant response rating, Nutsedge, Yellow", "setting": "[2]; 250 g ai/ha", "result": 0},
      {"measurement": "Plant response rating, Velvetleaf", "setting": "[3]; 62 g ai/ha", "result": 35},
      {"measurement": "Plant response rating, Velvetleaf", "setting": "[3]; 125 g ai/ha", "result": 50},
      {"measurement": "Plant response rating, Velvetleaf", "setting": "[3]; 250 g ai/ha", "result": 80},
      {"measurement": "Plant response rating, Blackgrass", "setting": "[4]; 31 g ai/ha", "result": 10},
      {"measurement": "Plant response rating, Blackgrass", "setting": "[4]; 62 g ai/ha", "result": 55},
      {"measurement": "Plant response rating, Blackgrass", "setting": "[4]; 125 g ai/ha", "result": 70},
      {"measurement": "Plant response rating, Blackgrass", "setting": "[4]; 250 g ai/ha", "result": 90},
      {"measurement": "Plant response rating, Pigweed", "setting": "[5]; 31 g ai/ha", "result": 70},
      {"measurement": "Plant response rating, Pigweed", "setting": "[5]; 62 g ai/ha", "result": 75},
      {"measurement": "Plant response rating, Pigweed", "setting": "[5]; 125 g ai/ha", "result": 85},
      {"measurement": "Plant response rating, Pigweed", "setting": "[5]; 250 g ai/ha", "result": 90},
      {"measurement": "Plant response rating, Ryegrass, Italian", "setting": "[6]; 62 g ai/ha", "result": 30},
      {"measurement": "Plant response rating, Ryegrass, Italian", "setting": "[6]; 125 g ai/ha", "result": 30},
      {"measurement": "Plant response rating, Ryegrass, Italian", "setting": "[6]; 250 g ai/ha", "result": 45},
      {"measurement": "Plant response rating, Ragweed", "setting": "[7]; 31 g ai/ha", "result": 35},
      {"measurement": "Plant response rating, Ragweed", "setting": "[7]; 62 g ai/ha", "result": 35},
      {"measurement": "Plant response rating, Ragweed", "setting": "[7]; 125 g ai/ha", "result": 40},
      {"measurement": "Plant response rating, Ragweed", "setting": "[7]; 250 g ai/ha", "result": 65},
      {"measurement": "Plant response rating, Waterhemp", "setting": "[8]; 62 g ai/ha", "result": 80},
      {"measurement": "Plant response rating, Waterhemp", "setting": "[8]; 125 g ai/ha", "result": 85},
      {"measurement": "Plant response rating, Waterhemp", "setting": "[8]; 250 g ai/ha", "result": 90},
      {"measurement": "Plant response rating, Lambsquarters", "setting": "[9]; 31 g ai/ha", "result": 55},
      {"measurement": "Plant response rating, Lambsquarters", "setting": "[9]; 62 g ai/ha", "result": 75},
      {"measurement": "Plant response rating, Lambsquarters", "setting": "[9]; 125 g ai/ha", "result": 75},
      {"measurement": "Plant response rating, Lambsquarters", "setting": "[9]; 250 g ai/ha", "result": 85},
      {"measurement": "Plant response rating, Morningglory", "setting": "[10]; 31 g ai/ha", "result": 0},
      {"measurement": "Plant response rating, Morningglory", "setting": "[10]; 62 g ai/ha", "result": 10},
      {"measurement": "Plant response rating, Morningglory", "setting": "[10]; 125 g ai/ha", "result": 10},
      {"measurement": "Plant response rating, Morningglory", "setting": "[10]; 250 g ai/ha", "result": 10},
      {"measurement": "Plant response rating, Barnyardgrass", "setting": "[11]; 31 g ai/ha", "result": 90},
      {"measurement": "Plant response rating, Barnyardgrass", "setting": "[11]; 62 g ai/ha", "result": 90},
      {"measurement": "Plant response rating, Barnyardgrass", "setting": "[11]; 125 g ai/ha", "result": 95},
      {"measurement": "Plant response rating, Barnyardgrass", "setting": "[11]; 250 g ai/ha", "result": 95},
      {"measurement": "Plant response rating, Foxtail, Giant", "setting": "[12]; 31 g ai/ha", "result": 90},
      {"measurement": "Plant response rating, Foxtail, Giant", "setting": "[12]; 62 g ai/ha", "result": 95},
      {"measurement": "Plant response rating, Foxtail, Giant", "setting": "[12]; 125 g ai/ha", "result": 95},
      {"measurement": "Plant response rating, Foxtail, Giant", "setting": "[12]; 250 g ai/ha", "result": 95},
      {"measurement": "Plant response rating, Corn", "setting": "corn (Zea mays); 31 g ai/ha", "result": 0},
      {"measurement": "Plant response rating, Corn", "setting": "corn (Zea mays); 62 g ai/ha", "result": 40},
      {"measurement": "Plant response rating, Corn", "setting": "corn (Zea mays); 125 g ai/ha", "result": 55},
      {"measurement": "Plant response rating, Corn", "setting": "corn (Zea mays); 250 g ai/ha", "result": 70},
      {"measurement": "Plant response rating, Wheat", "setting": "[13]; 62 g ai/ha", "result": 20},
      {"measurement": "Plant response rating, Wheat", "setting": "[13]; 125 g ai/ha", "result": 35},
      {"measurement": "Plant response rating, Wheat", "setting": "[13]; 250 g ai/ha", "result": 70},
      {"measurement": "Plant response rating, Crabgrass, Large", "setting": "[14]; 31 g ai/ha", "result": 95},
      {"measurement": "Plant response rating, Crabgrass, Large", "setting": "[14]; 62 g ai/ha", "result": 95},
      {"measurement": "Plant response rating, Crabgrass, Large", "setting": "[14]; 125 g ai/ha", "result": 95},
      {"measurement": "Plant response rating, Crabgrass, Large", "setting": "[14]; 250 g ai/ha", "result": 98},
      {"measurement": "Plant response rating, Oilseed Rape", "setting": "[15]; 31 g ai/ha", "result": 0},
      {"measurement": "Plant response rating, Oilseed Rape", "setting": "[15]; 62 g ai/ha", "result": 40},
      {"measurement": "Plant response rating, Oilseed Rape", "setting": "[15]; 125 g ai/ha", "result": 80},
      {"measurement": "Plant response rating, Oilseed Rape", "setting": "[15]; 250 g ai/ha", "result": 85}
    ]}
  ]
}
